“And” between values parts separate entries of the source, which are not always exact repeats. Identical values can stand only once. Results filed as inconclusive are left out.
Tested on: mice, P1798 lymphosarcoma sc, survival or tumor weight T/C
Experiment: NCI In Vivo Anticancer Drug Screen. Data for tumor model P1798 Lymphosarcoma (subcutaneous) in unknown mice
Protocol: The antitumor activity of compounds was measured in mice bearing transplantable tumors. Survival or tumor size were measured and the results are expressed as the measurement made in the treated group (T) divided by the measurement made in the vehicle treated control group (C). The tumor model used in this assay is P1798 Lymphosarcoma (subcutaneous) in unknown mice

## Clc1ccc(C(c2ccccc2Cl)C(Cl)Cl)cc1 (centres undefined)
endpoint: mean tumor weight, dose: 62.5 mg/kg/injection, schedule: Q01DX010 (sc), vehicle: steriod suspending solution, higher = larger tumour
  T/C: 85 % of control
endpoint: mean tumor weight, dose: 125.0 mg/kg/injection, schedule: Q01DX010 (sc), vehicle: steriod suspending solution, higher = larger tumour
  T/C: 73 % of control
endpoint: mean tumor weight, dose: 250.0 mg/kg/injection, schedule: Q01DX010 (sc), vehicle: steriod suspending solution, higher = larger tumour
  T/C: 105 % of control
endpoint: mean tumor weight, dose: 500.0 mg/kg/injection, schedule: Q01DX010 (sc), vehicle: steriod suspending solution, higher = larger tumour
  T/C: 103 % of control

## N=C(N)SCc1c2ccccc2c(CSC(=N)N)c2ccccc12
endpoint: mean tumor weight, dose: 2.5 mg/kg/injection, schedule: Q01DX011 (ip), vehicle: carboxymethylcellulose (CMC), higher = larger tumour
  T/C: 85 % of control
endpoint: mean tumor weight, dose: 5.0 mg/kg/injection, schedule: Q01DX011 (ip), vehicle: carboxymethylcellulose (CMC), higher = larger tumour
  T/C: 99 % of control
endpoint: mean tumor weight, dose: 10.0 mg/kg/injection, schedule: Q01DX011 (ip), vehicle: carboxymethylcellulose (CMC), higher = larger tumour
  T/C: 50 % of control
endpoint: mean tumor weight, dose: 20.0 mg/kg/injection, schedule: Q01DX011 (ip), vehicle: carboxymethylcellulose (CMC), higher = larger tumour
  T/C: 40 % of control

## COc1cccc2c1C(=O)c1c(O)c3c(c(O)c1C2=O)C[C@@](O)(C(=O)CO)C[C@@H]3OC1CC(N)C(O)C(C)O1 (some centres undefined)
endpoint: median survival time, dose: 0.25 mg/kg/injection, schedule: Q01DX010 (ip), vehicle: water, higher = longer survival
  T/C: 84 % of control
endpoint: median survival time, dose: 0.5 mg/kg/injection, schedule: Q01DX010 (ip), vehicle: water, higher = longer survival
  T/C: 102 % of control
endpoint: median survival time, dose: 1.0 mg/kg/injection, schedule: Q01DX010 (ip), vehicle: water, higher = longer survival
  T/C: 93 % of control
endpoint: median survival time, dose: 1.0 mg/kg/injection, schedule: Q04DX007 (ip), vehicle: water, higher = longer survival
  T/C: 108 % of control
endpoint: median survival time, dose: 2.0 mg/kg/injection, schedule: Q01DX010 (ip), vehicle: water, higher = longer survival
  T/C: 36 % of control
endpoint: median survival time, dose: 2.0 mg/kg/injection, schedule: Q04DX007 (ip), vehicle: water, higher = longer survival
  T/C: 107 % of control
endpoint: median survival time, dose: 4.0 mg/kg/injection, schedule: Q01DX010 (ip), vehicle: water, higher = longer survival
  T/C: 28 % of control

## CCCCCCCCCCCCCCCCC(C(=O)O)C(O)(CC(=O)O)C(=O)O (centres undefined)
endpoint: mean tumor weight, dose: 12.5 mg/kg/injection, schedule: Q01DX010 (ip), vehicle: carboxymethylcellulose (CMC), higher = larger tumour
  T/C: 84 % of control
endpoint: mean tumor weight, dose: 25.0 mg/kg/injection, schedule: Q01DX010 (ip), vehicle: carboxymethylcellulose (CMC), higher = larger tumour
  T/C: 87 % of control

## O=P1(N(CCCl)CCCl)NCCCO1 (centres undefined)
endpoint: mean tumor weight, dose: 6.3 mg/kg/injection, schedule: Q01DX010 (ip), vehicle: saline, higher = larger tumour
  T/C: 113 % of control and 107 % of control
endpoint: mean tumor weight, dose: 13.0 mg/kg/injection, schedule: Q01DX011 (ip), vehicle: saline, higher = larger tumour
  T/C: 86 % of control
endpoint: mean tumor weight, dose: 26.5 mg/kg/injection, schedule: Q01DX011 (ip), vehicle: saline, higher = larger tumour
  T/C: 121 % of control
endpoint: mean tumor weight, dose: 40.0 mg/kg/injection, schedule: Q01DX011 (ip), vehicle: saline, higher = larger tumour
  T/C: 26 % of control
endpoint: median survival time, dose: 3.12 mg/kg/injection, schedule: Q01DX010 (ip), vehicle: saline, higher = longer survival
  T/C: 80 % of control
endpoint: median survival time, dose: 6.25 mg/kg/injection, schedule: Q01DX010 (ip), vehicle: saline, higher = longer survival
  T/C: 97 % of control
endpoint: median survival time, dose: 6.3 mg/kg/injection, schedule: Q07DX005 (ip), vehicle: saline, higher = longer survival
  T/C: 99 % of control
endpoint: median survival time, dose: 12.5 mg/kg/injection, schedule: Q01DX001 (ip), vehicle: saline, higher = longer survival
  T/C: 107 % of control
endpoint: median survival time, dose: 12.5 mg/kg/injection, schedule: Q01DX010 (ip), vehicle: saline, higher = longer survival
  T/C: 96 % of control and 103 % of control (2×)
endpoint: median survival time, dose: 12.5 mg/kg/injection, schedule: Q07DX005 (ip), vehicle: saline, higher = longer survival
  T/C: 106 % of control
endpoint: median survival time, dose: 25.0 mg/kg/injection, schedule: Q01DX001 (ip), vehicle: saline, higher = longer survival
  T/C: 92 % of control (2×) and 101 % of control
endpoint: median survival time, dose: 25.0 mg/kg/injection, schedule: Q01DX010 (ip), vehicle: saline, higher = longer survival
  T/C: 46 % of control and 98 % of control (2×)
endpoint: median survival time, dose: 25.0 mg/kg/injection, schedule: Q07DX005 (ip), vehicle: saline, higher = longer survival
  T/C: 103 % of control
endpoint: median survival time, dose: 50.0 mg/kg/injection, schedule: Q01DX001 (ip), vehicle: saline, higher = longer survival
  T/C: 97 % of control and 99 % of control (2×)
endpoint: median survival time, dose: 50.0 mg/kg/injection, schedule: Q01DX010 (ip), vehicle: saline, higher = longer survival
  T/C: 29 % of control and 90 % of control (2×)
endpoint: median survival time, dose: 50.0 mg/kg/injection, schedule: Q07DX005 (ip), vehicle: saline, higher = longer survival
  T/C: 110 % of control
endpoint: median survival time, dose: 100.0 mg/kg/injection, schedule: Q01DX001 (ip), vehicle: saline, higher = longer survival
  T/C: 114 % of control and 100 % of control (2×)
endpoint: median survival time, dose: 100.0 mg/kg/injection, schedule: Q01DX010 (ip), vehicle: saline, higher = longer survival
  T/C: 29 % of control
endpoint: median survival time, dose: 100.0 mg/kg/injection, schedule: Q07DX005 (ip), vehicle: saline, higher = longer survival
  T/C: 95 % of control
endpoint: median survival time, dose: 200.0 mg/kg/injection, schedule: Q01DX001 (ip), vehicle: saline, higher = longer survival
  T/C: 107 % of control
endpoint: median survival time, dose: 200.0 mg/kg/injection, schedule: Q01DX010 (ip), vehicle: saline, higher = longer survival
  T/C: 25 % of control
endpoint: median survival time, dose: 400.0 mg/kg/injection, schedule: Q01DX001 (ip), vehicle: saline, higher = longer survival
  T/C: 29 % of control

From PubChem BioAssay AID290 (DTP/NCI, 2004)
